Laboratory results published in patent US20190262469A1 (priority 2015, published 2019).
In brackets after ≈: the same amount, converted by molar mass. Where no end group is shown, it is not given here.

Key:
[1] = test system: alphaviruses; settings: cited from earlier work
[2] = in vivo; cited from earlier work
[3] = test system: E. coli ER2420/pACYC177; test: microbe, parasite or virus in culture; type: cell-based; settings: Escherichia coli, test array/20-well test strips (FIG. 34, 35)
[4] = test system: E. coli ER2420 with pACYC177 or pACYC184; type: cell-based
[5] = buffer; cited from earlier work
[6] = biological target: T1, human ephrin B2 (EB2) expressed on cells (CHO-K1 transfected to express ephrin B2) (human, UniProt P52799 28-333); test: fluorescence of labelled DOPC protocells modified with the ligand on ephrin B2-expressing cells, against unmodified DOPC protocells (FIGS. 3A-B)
T1 construct: whole, on cells; Cellular receptor for Nipah and Hendra viruses; also called CHO-K1/EB2; CHO-K1/ephrin B2
T1 sequence (P52799 28-333): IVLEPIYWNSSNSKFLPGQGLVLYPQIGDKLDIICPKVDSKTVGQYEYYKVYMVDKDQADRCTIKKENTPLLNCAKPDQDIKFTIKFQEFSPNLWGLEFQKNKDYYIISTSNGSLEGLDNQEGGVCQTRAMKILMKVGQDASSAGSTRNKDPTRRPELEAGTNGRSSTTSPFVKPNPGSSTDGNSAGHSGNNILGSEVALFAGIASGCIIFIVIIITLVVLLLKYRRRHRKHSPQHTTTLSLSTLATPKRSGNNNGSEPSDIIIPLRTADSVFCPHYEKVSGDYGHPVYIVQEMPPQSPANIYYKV

Molecule | MIC [3] [µg/mL] | killing action detected by delta-Ct for PMA treatment [4] | further results
NC(=O)c1ncn([C@@H]2O[C@H](CO)[C@@H](O)[C@H]2O)n1 [Ribavirin] | – | – | IC50 values for several alphaviruses [1]: low micromolar range; circulation half-life [2]: < 48 h
CC1(C)S[C@@H]2[C@H](NC(=O)[C@H](N)c3ccc(O)cc3)C(=O)N2[C@H]1C(=O)O [amoxicillin] | > 128 | in the susceptible strain (pACYC184) and not in the resistant strain (pACYC177) | half-life in aqueous media/solution [5]: on the order of a few hours
CO/N=C(\C(=O)N[C@@H]1C(=O)N2C(C(=O)O)=C(COC(C)=O)CS[C@H]12)c1csc(N)n1 [cefotaxime] | – | in both strains | –
O=C(O)c1cn(C2CC2)c2cc(N3CCNCC3)c(F)cc2c1=O [ciprofloxacin] | < 0.031 | rapidly bactericidal to both E. coli at low concentrations | –
O=C(O)[C@H]1/C(=C/CO)O[C@@H]2CC(=O)N21 [clavulanic acid] | – | – | half-life in aqueous media/solution [5]: a few hours
NC[C@H]1O[C@H](O[C@H]2[C@H](O)[C@@H](O[C@H]3O[C@H](CO)[C@@H](O)[C@H](N)[C@H]3O)[C@H](N)C[C@@H]2N)[C@H](O)[C@@H](O)[C@@H]1O [kanamycin] | > 256 | – | –
CO[C@H]1/C=C/O[C@@]2(C)Oc3c(C)c(O)c4c(O)c(c(/C=N/N5CCN(C)CC5)c(O)c4c3C2=O)NC(=O)/C(C)=C\C=C\[C@H](C)[C@H](O)[C@@H](C)[C@@H](O)[C@@H](C)[C@H](OC(C)=O)[C@@H]1C [rifampicin] | 8 (≈ 9.72 µM) | – | –
TGAILHP (also: conjugated to protocell lipid bilayer, linker not described, also called ephrin B2-targeting peptide; targeting peptide) | – | – | fold increase in selective binding and internalization [6]: 100 fold
